This note sets out measurements from the Deep4Chem optical property database.

The nature of the series: solvent given as SMILES.

As for `COc1ccc(C#Cc2ccc(C#N)cc2)cc1OC`, the absorption maximum reads like this: (in C1COCCO1) 326 nm; (in CC#N) 325 nm; (in CCCCCC) 343 nm; (in CCCCCCC) 344 nm; (in CCCO) 329 nm; (in CCOC(C)=O) 326 nm. Further, the absorption maximum is, setting by setting: (in CS(C)=O) 334 nm; (in ClC(Cl)Cl) 329 nm; (in ClCCl) 331 nm.

Take `COc1ccc(C(=O)/C=C2\C(=O)Nc3ccccc32)c(OC)c1`: the absorption maximum by setting is: (in C1CCCCC1) 334 nm; (in C1COCCO1) 336 nm; (in CC#N) 328 nm; (in CC(C)(C)O) 338 nm; (in CC(C)O) 338 nm; (in CCCCCC) 333 nm. Also, the absorption maximum is 340 nm (in CCCCO); 334 nm (in CCOC(C)=O); 338 nm (in CN(C)C=O); 343 nm (in CO); 331 nm (in ClCCl); 330 nm (in O).

`c1ccc(C[n+]2cc3ccc4c[n+](Cc5ccccc5)cc5ccc(c2)c3c45)cc1`: the absorption maximum (in CC#N) stood at 421 nm.

As to `CCCCC1(c2ccccc2)Nc2c(-c3ccc(N(C)c4ccccc4)cc3)ccc(-c3ccc(N(C)c4ccccc4)cc3)c2N=C1c1ccccc1` (stereo not given), the absorption maximum (in ClC(Cl)Cl) is 380 nm.

`COc1ccc(-n2c(C)ccc2C)cc1`: the absorption maximum is, setting by setting: (in CC#N) 224 nm; (in CCCCCC) 222 nm.

`CC(C)(C)c1ccc2c(c1)c1cc(C(C)(C)C)ccc1n2-c1ccc(N(c2ccc(-c3ccc(-c4ccc(N(c5ccc(-n6c7ccc(C(C)(C)C)cc7c7cc(C(C)(C)C)ccc76)cc5)c5ccc(-n6c7ccc(C(C)(C)C)cc7c7cc(C(C)(C)C)ccc76)cc5)cc4)c4nsnc34)cc2)c2ccc(-n3c4ccc(C(C)(C)C)cc4c4cc(C(C)(C)C)ccc43)cc2)cc1`: the absorption maximum (in ClCCl) is given as 462 nm.

Regarding `O=[N+]([O-])c1ccc(C#Cc2ccc([N+](=O)[O-])cc2)cc1`, the absorption maximum is, setting by setting: (in CO) 329 nm; (in ClCCl) 335 nm.

For `CN(C)c1ccc(/C=C/c2cc(/C=C/c3ccc(N(C)C)cc3)nc(N)n2)cc1`, the absorption maximum was found to be 414 nm (in Cc1ccccc1) and 426 nm (in ClC(Cl)Cl).
